In PubChem BioAssay (NCI):
Several values for one entry are separate records, joined by “and”; a condition that tells them apart may be missing. Identical values can stand only once.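 Test compounds were applied to cells in 96-well plates for 48 hours at 5 doses. GI50 = concentration required for 50% inhibition of growth. At the TGI there is no net growth.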

What was measured:
Assay in all cases: NCI anticancer screen, dose series, 48 h
M14 melanoma = tested on: M14 melanoma
MOLT-4 leukemia = tested on: MOLT-4 leukemia
HCT-116 colon = tested on: HCT-116 colon
UO-31 renal = tested on: UO-31 renal
A549 NSCLC = tested on: A549 NSCLC
NCI-H460 lung = tested on: NCI-H460 lung
SNB-75 CNS = tested on: SNB-75 CNS
786-0 renal = tested on: 786-0 renal
T-47D breast = tested on: T-47D breast
NCI-H23 lung = tested on: NCI-H23 lung

Compound	GI50 (M14 melanoma) [µM]	TGI (M14 melanoma) [µM]	GI50 (MOLT-4 leukemia) [µM]	TGI (MOLT-4 leukemia) [µM]	GI50 (HCT-116 colon) [µM]	TGI (HCT-116 colon)	GI50 (UO-31 renal) [µM]	TGI (UO-31 renal) [µM]	GI50 (A549 NSCLC) [µM]	TGI (A549 NSCLC)	GI50 (NCI-H460 lung) [µM]	TGI (NCI-H460 lung)	GI50 (SNB-75 CNS) [µM]	TGI (SNB-75 CNS)	GI50 (786-0 renal) [µM]	TGI (786-0 renal)	GI50 (T-47D breast) [µM]	TGI (T-47D breast) [µM]	GI50 (NCI-H23 lung) [µM]	TGI (NCI-H23 lung) [µM]
COc1ccc(C2[C@@H](c3ccccc3)C(=O)N2c2cc(OC)c(OC)c(OC)c2)cc1F (stereo not given in full)	0.0226	0.0672	0.0381	> 100	0.0324	10.4 µM	0.0771	> 100	0.0368	> 100 µM	0.0344	> 100 µM	0.0314	> 100 µM	0.0314	> 100 µM	> 100	> 100	0.0489	> 100
COc1ccc(/C=N/NC(=O)c2cccc3cc[nH]c23)cc1O	1.13	> 100	2.84	> 66.2	1.72	> 100 µM	6.51	> 100	5.36	> 100 µM	2.03	> 68.3 µM	0.24	> 100 µM	5.13	> 100 µM	5.74	> 100	6.57	> 100
O=C(O)c1ccc2c(c1C(=O)O)C(=O)OC2(c1ccc(O)cc1)c1ccc(O)cc1		> 100		> 100		> 100 µM		> 100		> 100 µM		> 100 µM		> 100 µM		> 100 µM		> 100		> 100
O=C(CCCSc1nc(-c2ccccc2)cc(-c2ccccc2)n1)NO	0.927	5.29	1.1	10.2	0.657	11.7 µM	0.274	1.27	2.63	10.1 µM	0.488	11.2 µM	1.68	9.55 µM	0.585	4.34 µM	1.76	22	2	6.11
O=C(/C(=C/c1ccc([N+](=O)[O-])cc1)SCc1ccccc1)c1ccc(Cl)cc1	2.63	8.59	2.61	> 100			1.5	3.3	15.1	32.2 µM	5.34	20.3 µM	16	35.7 µM	1.77	3.41 µM	2.41	7.46	3.14	14.1
Cc1ccc(-n2c3nc(=O)[nH]c(=O)c-3cc3cc([N+](=O)[O-])ccc32)cc1	17.3	36.6	6.61	> 100	5.26	21 µM	23	68.2	44.6	> 100 µM	17.1	> 100 µM	16.6	59.4 µM	10.3	29.5 µM	14.3	36	13.4	29.6
CCC(=C/[C@H](C)C/C=C/C(C)=C/[C@@H](C)C(=O)[C@@H](C)[C@H](O)[C@@H](C)CC)/C=C/[C@H]1OC(=O)C=C[C@@H]1C	< 0.01	0.193	< 0.01	0.114	< 0.01	0.0106 µM	< 0.01	1.87	< 0.01		< 0.01	1.88 µM	< 0.01	0.655 µM	< 0.01	< 0.0219 µM	< 0.01	4.88	< 0.01	3.36
CC1=C2C(=C[C@@](C)(CO)[C@@H]2O)C(=O)[C@](C)(O)C12CC2		0.0228	0.0107			0.104 µM and 0.135 µM		0.0422		0.0885 µM and 0.2 µM		0.00701 µM and 0.0108 µM		0.0296 µM and 0.0123 µM		0.0143 µM and 0.0638 µM		0.0545	0.3	
CCCOc1cc2ccccc2cc1C(=O)Nc1nc(N)c2c(ccc3nccc32)[nH]1	0.0405	1.08			0.0461	1.22 µM	0.703	2.4	0.0993	1.86 µM	0.0417	1.31 µM			0.0509	1.56 µM	0.499	3.17	0.209	2.04
CC1(C)OC1COc1c2occc2cc2ccc(=O)oc12 (stereo not given)		> 100		> 100		> 100 µM		> 100		> 100 µM		> 100 µM		> 100 µM		> 100 µM		> 100		> 100
Cn1ccc2c3c(Oc4ccc(NC(N)=O)cc4)ccnc3ccc21	> 100	> 100	> 100	> 100	> 100	> 100 µM	> 100	> 100	> 100	> 100 µM	> 100	> 100 µM			> 100	> 100 µM	> 100	> 100	> 100	> 100
Nc1n[nH]c2cccc(C#Cc3cccc(C(=O)Nc4ccc(CN5CCOCC5)c(C(F)(F)F)c4)c3)c12	1.17	3.59	1.4	4.24	1.53	5.2 µM	1.9	5.82	3.13	11.3 µM	3.2	10.3 µM	3.21	12.8 µM	2.79	7.74 µM	1.18	5.76	2.1	11.3
O=C(O)c1nc2nc(Cl)c(Cl)nc2[nH]1		> 100		> 100		> 100 µM				> 100 µM		> 100 µM		> 100 µM		> 100 µM		> 100		> 100
O=C(/C=C/c1ccc(O)cc1)c1ccc(O)cc1		42.7		82.3		36.3 µM		51.2		> 100 µM		72.5 µM		51.7 µM		> 100 µM		> 100		62.6
CN(C)CC1CC/C(=C\c2ccc(O)cc2)C1=O (stereo not given)		4.95		5.29		4.09 µM		26.5		40.9 µM		37.2 µM		25.8 µM		4.91 µM		5.34		13.2
